In ChEMBL document CHEMBL5241119, “Hydroxypyrone derivatives in drug discovery: from chelation therapy to rational design of metalloenzyme inhibitors” (RSC Med Chem, 2022):

Columns and labels:
Lethal factor = Lethal factor (Bacillus anthracis, UniProt P15917); experiment: Inhibition of anthrax lethal factor
[1] = Inhibition of NDM-1 (unknown origin) relative to control; design: concentration or dose not given beside the values; details: Bacteria; concentration not given here
Mushroom tyrosinase [2] = target: T1, Mushroom tyrosinase (Agaricus bisporus, UniProt O42713+Q00024+C7FF04+C7FF05); experiment: Inhibition of mushroom monophenolase
Mushroom tyrosinase [3] = target: T1, Mushroom tyrosinase; experiment: Inhibition of mushroom diphenolase
[4] = target: T2, Mushroom tyrosinase (Agaricus bisporus) (UniProt O42713+Q00024+C7FF04+C7FF05); experiment: Inhibition of mushroom monophenolase activity using L-DOPA as substrate preincubated with substrate followed by compound addition by Lineweaver-burk reciprocal plot analysis
[5] = target: T2, Mushroom tyrosinase (Agaricus bisporus); experiment: Inhibition of mushroom Diphenolase activity using L-DOPA as substrate preincubated with substrate followed by compound addition by Lineweaver-burk reciprocal plot analysis
Mushroom tyrosinase [6] = target: T1, Mushroom tyrosinase; experiment: Inhibition of mushroom monophenolase activity by Lineweaver-burk reciprocal plot analysis
Mushroom tyrosinase [7] = target: T1, Mushroom tyrosinase; experiment: Inhibition of mushroom Diphenolase activity by Lineweaver-burk reciprocal plot analysis
Glycine max = experiment: Inhibition of soybean 5-LOX relative to control
Matrilysin = target: T3, Matrilysin (Homo sapiens, UniProt P09237); experiment: Inhibition of human MMP-7
T3 sequence (P09237 whole entry): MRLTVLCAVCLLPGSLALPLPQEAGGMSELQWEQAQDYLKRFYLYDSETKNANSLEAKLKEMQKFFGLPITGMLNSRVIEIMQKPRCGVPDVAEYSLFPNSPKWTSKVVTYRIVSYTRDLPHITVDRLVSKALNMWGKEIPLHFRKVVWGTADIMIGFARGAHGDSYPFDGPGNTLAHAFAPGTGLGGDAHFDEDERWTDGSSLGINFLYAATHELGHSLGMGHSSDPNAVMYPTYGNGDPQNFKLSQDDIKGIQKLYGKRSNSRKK

Interstitial collagenase = target: T4, Interstitial collagenase (Homo sapiens, UniProt P03956); experiment: Inhibition of human MMP-1
T4 sequence (P03956 whole entry): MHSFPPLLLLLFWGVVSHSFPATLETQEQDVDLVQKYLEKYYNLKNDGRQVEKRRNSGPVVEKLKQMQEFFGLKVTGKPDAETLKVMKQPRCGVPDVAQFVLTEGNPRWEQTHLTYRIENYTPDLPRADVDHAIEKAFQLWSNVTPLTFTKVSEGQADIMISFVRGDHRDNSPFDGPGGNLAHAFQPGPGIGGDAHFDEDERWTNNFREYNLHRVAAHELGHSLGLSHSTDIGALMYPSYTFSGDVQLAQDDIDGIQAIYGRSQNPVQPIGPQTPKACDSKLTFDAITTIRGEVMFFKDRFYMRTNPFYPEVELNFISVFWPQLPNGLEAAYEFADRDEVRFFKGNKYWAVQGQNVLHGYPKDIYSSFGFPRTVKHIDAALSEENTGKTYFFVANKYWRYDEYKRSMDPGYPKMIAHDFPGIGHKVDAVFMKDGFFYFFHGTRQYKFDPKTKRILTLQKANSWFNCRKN

Collagenase 3 = Collagenase 3 (Homo sapiens, UniProt P45452); experiment: Inhibition of human MMP-13
[8] = target: T5, Matrix metalloproteinase-9 (Homo sapiens, UniProt P14780); experiment: Inhibition of human MMP-9
T5 sequence (P14780 whole entry): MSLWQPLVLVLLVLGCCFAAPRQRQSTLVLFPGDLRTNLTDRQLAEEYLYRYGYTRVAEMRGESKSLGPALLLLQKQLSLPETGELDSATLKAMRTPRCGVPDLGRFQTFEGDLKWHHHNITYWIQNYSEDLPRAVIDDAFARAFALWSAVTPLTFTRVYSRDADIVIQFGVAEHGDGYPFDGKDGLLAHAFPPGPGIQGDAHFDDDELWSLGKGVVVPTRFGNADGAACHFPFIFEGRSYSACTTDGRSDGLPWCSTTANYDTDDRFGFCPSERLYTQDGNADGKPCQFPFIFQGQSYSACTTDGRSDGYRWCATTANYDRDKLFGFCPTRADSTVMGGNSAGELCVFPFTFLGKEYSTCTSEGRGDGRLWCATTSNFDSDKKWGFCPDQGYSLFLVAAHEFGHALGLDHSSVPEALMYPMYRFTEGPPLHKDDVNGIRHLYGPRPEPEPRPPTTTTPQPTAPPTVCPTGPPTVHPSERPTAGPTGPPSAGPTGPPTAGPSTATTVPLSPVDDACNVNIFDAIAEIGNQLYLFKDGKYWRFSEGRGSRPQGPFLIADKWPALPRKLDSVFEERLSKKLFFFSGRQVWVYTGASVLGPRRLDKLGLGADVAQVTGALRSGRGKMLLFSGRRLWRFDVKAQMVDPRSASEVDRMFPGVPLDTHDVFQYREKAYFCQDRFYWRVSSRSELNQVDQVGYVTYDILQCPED

Neutrophil collagenase [9] = target: T6, Neutrophil collagenase (Homo sapiens, UniProt P22894); experiment: Inhibition of human MMP-8
Target sequence in this assay (P22894 whole entry): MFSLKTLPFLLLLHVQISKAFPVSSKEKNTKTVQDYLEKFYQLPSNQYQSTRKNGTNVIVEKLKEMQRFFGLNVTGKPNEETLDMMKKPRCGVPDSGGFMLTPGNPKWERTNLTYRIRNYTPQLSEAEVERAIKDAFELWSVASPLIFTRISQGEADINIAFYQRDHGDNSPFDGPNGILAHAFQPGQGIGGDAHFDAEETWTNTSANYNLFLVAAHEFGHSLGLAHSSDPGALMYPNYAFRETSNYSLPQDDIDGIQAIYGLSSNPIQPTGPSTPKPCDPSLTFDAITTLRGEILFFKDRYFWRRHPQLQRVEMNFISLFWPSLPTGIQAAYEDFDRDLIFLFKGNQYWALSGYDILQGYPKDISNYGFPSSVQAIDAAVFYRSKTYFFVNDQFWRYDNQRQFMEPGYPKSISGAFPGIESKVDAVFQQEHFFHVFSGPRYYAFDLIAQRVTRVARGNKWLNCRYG

Stromelysin-1 [10] = target: T7, Stromelysin-1 (Homo sapiens, UniProt P08254); experiment: Inhibition of MMP-3 (unknown origin) by fluorescence based assay
Target sequence in this assay (P08254 whole entry): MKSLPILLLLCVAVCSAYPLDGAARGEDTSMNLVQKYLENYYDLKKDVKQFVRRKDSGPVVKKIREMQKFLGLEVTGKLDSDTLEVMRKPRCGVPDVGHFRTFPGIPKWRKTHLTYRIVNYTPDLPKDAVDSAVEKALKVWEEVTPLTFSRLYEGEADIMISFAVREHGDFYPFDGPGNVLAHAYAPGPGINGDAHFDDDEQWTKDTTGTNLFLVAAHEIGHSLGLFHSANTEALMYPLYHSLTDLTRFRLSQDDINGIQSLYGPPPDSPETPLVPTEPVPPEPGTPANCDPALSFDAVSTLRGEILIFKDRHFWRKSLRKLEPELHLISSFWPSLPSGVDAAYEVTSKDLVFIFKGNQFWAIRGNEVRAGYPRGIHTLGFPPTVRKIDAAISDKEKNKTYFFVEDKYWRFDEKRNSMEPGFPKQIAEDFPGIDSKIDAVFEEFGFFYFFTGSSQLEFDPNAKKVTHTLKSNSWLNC

Stromelysin-1 [11] = target: T7, Stromelysin-1; experiment: Inhibition of MMP-3 (unknown origin) by Colorimetric assay
Target sequence in this assay (P08254 whole entry): as above

[12] = target: T8, Macrophage metalloelastase (Homo sapiens, UniProt P39900); experiment: Inhibition of human MMP-12
Target sequence in this assay (P39900 whole entry): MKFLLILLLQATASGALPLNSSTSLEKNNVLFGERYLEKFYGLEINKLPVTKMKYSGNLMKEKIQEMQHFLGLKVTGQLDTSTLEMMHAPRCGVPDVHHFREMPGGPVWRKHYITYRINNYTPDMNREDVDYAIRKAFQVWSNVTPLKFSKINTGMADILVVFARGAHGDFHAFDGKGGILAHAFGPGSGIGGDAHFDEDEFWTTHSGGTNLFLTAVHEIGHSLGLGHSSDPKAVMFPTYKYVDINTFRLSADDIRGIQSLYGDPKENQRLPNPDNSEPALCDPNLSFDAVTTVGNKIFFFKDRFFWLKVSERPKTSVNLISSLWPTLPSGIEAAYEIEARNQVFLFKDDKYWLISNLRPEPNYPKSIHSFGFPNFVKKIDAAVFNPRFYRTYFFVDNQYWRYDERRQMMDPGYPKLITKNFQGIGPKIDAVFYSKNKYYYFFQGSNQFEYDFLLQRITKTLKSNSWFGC

[13] = Antioxidant activity assessed as DPPH radical scavenging activity; assay type: functional
[14] = target: T8, Macrophage metalloelastase; experiment: Inhibition of human MMP-12 relative to control; design: concentration or dose not given beside the values; details: concentration not given here
Target sequence in this assay (P39900 106-470 limits assumed): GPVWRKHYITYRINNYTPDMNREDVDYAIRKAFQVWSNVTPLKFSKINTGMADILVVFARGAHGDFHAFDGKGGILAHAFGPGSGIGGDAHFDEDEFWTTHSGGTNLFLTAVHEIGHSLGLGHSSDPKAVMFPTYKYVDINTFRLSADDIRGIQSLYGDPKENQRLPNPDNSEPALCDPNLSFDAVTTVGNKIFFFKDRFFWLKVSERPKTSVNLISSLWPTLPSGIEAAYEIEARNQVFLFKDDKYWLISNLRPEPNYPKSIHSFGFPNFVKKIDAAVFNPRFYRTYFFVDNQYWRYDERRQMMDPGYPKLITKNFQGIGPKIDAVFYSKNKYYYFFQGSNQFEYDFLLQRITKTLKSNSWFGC

Stromelysin-1 [15] = target: T7, Stromelysin-1; experiment: Inhibition of human MMP-3 at 100 uM relative to control
Target sequence in this assay (P08254 100-477 limits assumed): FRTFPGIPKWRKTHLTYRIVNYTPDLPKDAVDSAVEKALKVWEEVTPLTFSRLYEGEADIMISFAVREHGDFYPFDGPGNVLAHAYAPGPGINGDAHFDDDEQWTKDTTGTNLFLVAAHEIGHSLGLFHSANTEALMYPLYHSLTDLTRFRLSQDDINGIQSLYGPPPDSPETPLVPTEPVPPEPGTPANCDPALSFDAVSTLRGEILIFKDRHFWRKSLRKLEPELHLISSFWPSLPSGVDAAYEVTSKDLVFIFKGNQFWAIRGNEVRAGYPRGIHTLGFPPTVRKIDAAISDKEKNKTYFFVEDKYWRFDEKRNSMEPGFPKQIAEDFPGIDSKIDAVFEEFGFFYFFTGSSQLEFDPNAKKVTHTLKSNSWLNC

[16] = target: Interstitial collagenase (Homo sapiens) (UniProt P03956); experiment: Inhibition of human MMP-1 at 100 uM relative to control
[17] = target: Amine oxidase [flavin-containing] B (Homo sapiens, UniProt P27338); experiment: Inhibition of human MAO-B
Amine oxidase [flavin-containing] B, sequence (P27338 whole entry, the tested form may be a part): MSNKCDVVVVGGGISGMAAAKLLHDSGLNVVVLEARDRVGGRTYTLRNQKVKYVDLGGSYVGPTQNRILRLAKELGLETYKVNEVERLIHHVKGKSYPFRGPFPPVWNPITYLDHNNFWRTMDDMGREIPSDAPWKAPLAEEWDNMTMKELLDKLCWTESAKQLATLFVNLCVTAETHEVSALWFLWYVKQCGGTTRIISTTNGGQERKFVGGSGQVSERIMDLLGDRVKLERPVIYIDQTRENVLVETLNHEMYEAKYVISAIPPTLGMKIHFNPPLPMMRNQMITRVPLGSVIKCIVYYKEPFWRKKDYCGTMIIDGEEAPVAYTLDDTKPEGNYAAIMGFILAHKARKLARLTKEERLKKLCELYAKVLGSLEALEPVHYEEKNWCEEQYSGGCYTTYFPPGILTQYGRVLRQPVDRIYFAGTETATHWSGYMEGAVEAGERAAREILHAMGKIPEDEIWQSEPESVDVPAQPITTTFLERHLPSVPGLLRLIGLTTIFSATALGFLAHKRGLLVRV

Rattus norvegicus [18] = organism: Rattus norvegicus; experiment: Cardioprotective activity in myocardial ischemia/reperfusion induced Sprague-Dawley rat injury model assessed as improved RPP; assay type: functional
Rattus norvegicus [19] = organism: Rattus norvegicus; experiment: Cardioprotective activity in myocardial ischemia/reperfusion induced Sprague-Dawley rat injury model assessed as recovery of contractile function; assay type: functional
Rattus norvegicus [20] = organism: Rattus norvegicus; experiment: Cardioprotective activity in myocardial ischemia/reperfusion induced Sprague-Dawley rat injury model assessed as reduction in muscle damage; assay type: functional; design: scale not given: the % may be the effect or the level left
Rattus norvegicus [21] = organism: Rattus norvegicus; experiment: Cardioprotective activity in myocardial ischemia/reperfusion induced Sprague-Dawley rat injury model assessed as reduction in fibrillar collagen damage; assay type: functional; design: scale not given: the % may be the effect or the level left
Rattus norvegicus [22] = organism: Rattus norvegicus; experiment: Cardioprotective activity in myocardial ischemia/reperfusion induced Sprague-Dawley rat injury model assessed as improved coronary flow rate; assay type: functional
Stromelysin-1 [23] = target: T7, Stromelysin-1; experiment: Inhibition of MMP-3 (unknown origin)
Target sequence in this assay (P08254 whole entry): as the sequence (P08254 whole entry) above

[24] = target: 72 kDa type IV collagenase (Homo sapiens, UniProt P08253); experiment: Inhibition of MMP-2 (unknown origin)
[25] = target: T5, Matrix metalloproteinase-9; experiment: Inhibition of MMP-9 (unknown origin)
Stromelysin-1 [26] = target: T7, Stromelysin-1; experiment: Inhibition of human MMP-3
Target sequence in this assay (P08254 whole entry): as above

Pseudomonas aeruginosa = experiment: Inhibition of Pseudomonas aeruginosa Metallo-beta-lactamase VIM-2 at 50 uM relative to control
[27] = Therapeutic index, ratio of CC50 for HEK293 cells to EC50 for Escherichia coli expressing VIM-2; assay type: toxicity; details: human, read-out: Ratio CC50/EC50
[28] = Inhibition of Pseudomonas aeruginosa Metallo-beta-lactamase VIM-2
[29] = target: Polymerase acidic protein (Influenza A virus (A/Puerto Rico/8/1934(H1N1))) (UniProt P03433); experiment: Inhibition of Influenza A virus N-terminal domain of PA endonuclease relative to control; details: concentration not given here
[30] = target: T5, Matrix metalloproteinase-9; experiment: Inhibition of human MMP-9 at 100 uM relative to control
Acetylcholinesterase = Acetylcholinesterase (Electrophorus electricus, UniProt O42275); experiment: Inhibition of Electrophorus electricus AChE
Acetylcholinesterase, sequence (O42275 whole entry): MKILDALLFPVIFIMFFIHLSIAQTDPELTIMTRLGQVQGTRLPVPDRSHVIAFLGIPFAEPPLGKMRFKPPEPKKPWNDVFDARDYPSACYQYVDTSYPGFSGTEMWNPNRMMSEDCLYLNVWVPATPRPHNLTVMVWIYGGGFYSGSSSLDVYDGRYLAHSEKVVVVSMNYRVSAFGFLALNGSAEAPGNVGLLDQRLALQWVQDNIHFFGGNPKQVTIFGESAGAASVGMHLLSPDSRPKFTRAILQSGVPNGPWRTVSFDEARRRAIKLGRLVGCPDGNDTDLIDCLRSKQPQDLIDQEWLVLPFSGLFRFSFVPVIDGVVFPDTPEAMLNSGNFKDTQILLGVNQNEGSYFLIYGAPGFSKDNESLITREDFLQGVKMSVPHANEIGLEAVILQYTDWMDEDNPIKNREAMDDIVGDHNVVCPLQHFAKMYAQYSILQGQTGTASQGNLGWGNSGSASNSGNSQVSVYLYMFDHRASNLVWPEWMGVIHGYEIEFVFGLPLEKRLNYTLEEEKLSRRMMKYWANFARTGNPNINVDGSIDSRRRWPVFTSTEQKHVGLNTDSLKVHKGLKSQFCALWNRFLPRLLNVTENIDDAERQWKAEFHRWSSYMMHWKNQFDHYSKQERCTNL

SH-SY5Y = experiment: Protection against amyloid beta (1 to 42) induced toxicity in human SH-SY5Y cells assessed as increase in cell viability; assay type: functional
[31] = target: Amyloid-beta precursor protein (Homo sapiens) (UniProt P05067); experiment: Inhibition of amyloid beta (1 to 42 ) (unknown origin) self aggregation at 100 uM relative to control
Neutrophil collagenase [32] = target: T6, Neutrophil collagenase; experiment: Inhibition of beta-glucosidase activated MMP-8 (unknown origin) relative to control; details: concentration not given here
[33] = target: T5, Matrix metalloproteinase-9; experiment: Inhibition of beta-glucosidase activated MMP-9 (unknown origin) relative to control; details: concentration not given here

Lethal factor, sequence (P15917 whole entry): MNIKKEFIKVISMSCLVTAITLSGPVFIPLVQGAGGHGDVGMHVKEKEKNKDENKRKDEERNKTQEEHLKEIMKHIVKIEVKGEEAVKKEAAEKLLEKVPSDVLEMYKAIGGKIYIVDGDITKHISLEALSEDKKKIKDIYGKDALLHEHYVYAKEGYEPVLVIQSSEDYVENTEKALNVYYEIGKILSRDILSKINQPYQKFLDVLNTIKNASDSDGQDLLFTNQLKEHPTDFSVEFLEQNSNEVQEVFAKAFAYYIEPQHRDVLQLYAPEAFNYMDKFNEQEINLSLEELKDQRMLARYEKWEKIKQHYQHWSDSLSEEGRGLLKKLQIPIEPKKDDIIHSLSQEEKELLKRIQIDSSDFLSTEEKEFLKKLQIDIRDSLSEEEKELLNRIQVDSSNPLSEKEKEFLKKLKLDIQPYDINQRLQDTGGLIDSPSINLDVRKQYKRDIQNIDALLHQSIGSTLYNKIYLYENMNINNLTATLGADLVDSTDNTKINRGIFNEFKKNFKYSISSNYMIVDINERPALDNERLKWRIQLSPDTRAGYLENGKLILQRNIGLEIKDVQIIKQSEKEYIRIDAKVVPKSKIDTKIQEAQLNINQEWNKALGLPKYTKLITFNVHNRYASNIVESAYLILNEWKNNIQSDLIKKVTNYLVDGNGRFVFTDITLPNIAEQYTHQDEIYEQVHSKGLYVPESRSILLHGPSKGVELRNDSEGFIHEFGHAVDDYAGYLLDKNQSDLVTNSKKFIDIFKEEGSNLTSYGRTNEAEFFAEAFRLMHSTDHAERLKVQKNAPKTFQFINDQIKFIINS

Cc1cc(=S)c(O)c(C(=O)NCc2ccc(-c3ccccc3)cc2)o1
IC50 (Lethal factor): 13.9 µM

Cc1c(O)c(=S)ccn1C
inhibition [1]: 90%

COc1ccc(C(=O)/C=C/c2cc(=O)c(O)c[nH]2)cc1OC
IC50 (Mushroom tyrosinase [2]): 2.75 µM
IC50 (Mushroom tyrosinase [3]): 19.3 µM

CCCCCCCCO/N=C/c1cc(=O)c(O)c[nH]1
IC50 (Mushroom tyrosinase [2]): 1.6 µM
Kis [4]: 21.3 µM
Kis [5]: 21.3 µM
IC50 (Mushroom tyrosinase [3]): 7.99 µM
Ki (Mushroom tyrosinase [6]): 32.54 µM
Ki (Mushroom tyrosinase [7]): 32.54 µM

CCCNC(=O)CCC(=O)NCc1c(O)c(=O)cc(C)n1C
inhibition (Glycine max): 10%

Cc1c(O)c(=O)ccn1C
inhibition (Glycine max): 70%
inhibition ([4]; concentration not given here): 2%

Cc1cc(=O)c(O)c(C(=O)NCc2ccc(-c3ccccc3)cc2)n1C
IC50 (Matrilysin): 25 µM
IC50 (Interstitial collagenase): 25 µM
IC50 (Collagenase 3): 4 µM
IC50 [8]: 25 µM
IC50 (Neutrophil collagenase [9]): 1.2 µM

[O-][n+]1ccccc1S [PYRITHIONE]
IC50 (Stromelysin-1 [10]): 35 µM
IC50 (Stromelysin-1 [11]): 20 µM

On1ccc2[nH]cnc2c1=S
inhibition [1]: 90%

Cc1cc(=O)c(O)c(C(=O)NCc2ccc(-c3ccccc3)cc2)o1
IC50 (Matrilysin): 25 µM
IC50 [12]: 0.018 µM
IC50 (Interstitial collagenase): 25 µM
IC50 (Collagenase 3): 4 µM
IC50 [8]: 25 µM
IC50 (Neutrophil collagenase [9]): 0.018 µM

Cc1c(O)c(=O)ccn1CCCC(=O)N1CCCC1c1nc2ccccc2s1 (stereo not given)
EC50 [13]: 247 µM

CCCCCCCCn1cc(O)c(=O)cc1COC(=O)[C@H](N)Cc1ccccc1
IC50 (Mushroom tyrosinase [2]): 12.6 µM
IC50 (Mushroom tyrosinase [3]): 4.01 µM

S=c1cc[nH]c2[nH]cnc12
inhibition [1]: 90%

O=C(O)c1c[nH]c2ccccc2c1=S
inhibition [14]: 93%

Cc1occ(O)c(=O)c1C(=O)NCc1ccc(-c2ccccc2)cc1
inhibition (Stromelysin-1 [15]): 21%
inhibition [16]: 21%

CCCCCCO/N=C/c1cc(=O)c(O)c[nH]1
IC50 (Mushroom tyrosinase [2]): 2.04 µM
Kis [4]: 18.1 µM
Kis [5]: 18.1 µM
IC50 (Mushroom tyrosinase [3]): 13.89 µM
Ki (Mushroom tyrosinase [6]): 24.84 µM
Ki (Mushroom tyrosinase [7]): 24.84 µM

Cn1ccc(=O)c(O)c1C(=O)NCc1ccc(-c2ccccc2)cc1
IC50 (Matrilysin): 25 µM
IC50 (Interstitial collagenase): 25 µM
IC50 (Collagenase 3): 4 µM
IC50 [8]: 25 µM
IC50 (Neutrophil collagenase [9]): 1.2 µM

Cc1cc(=O)c(O)c(CO)n1CCCn1cc(COc2cc3ccccc3oc2=O)nn1
IC50 [17]: 0.86 µM

Cc1cc(=O)c(O)c(CO)n1CCn1cc(COc2ccc3ccc(=O)oc3c2)nn1
IC50 [17]: 0.68 µM

On1ccc2ccccc2c1=S
inhibition [1]: 90%
inhibition [14]: 93%

O=C(NCc1ccc(-c2ccccc2)cc1)c1cccc(=O)n1O
Activity (Rattus norvegicus [18]): 23%
IC50 (Matrilysin): 25 µM
Activity (Rattus norvegicus [19]): 80%
IC50 (Interstitial collagenase): 25 µM
Activity (Rattus norvegicus [20]): 25%
IC50 (Collagenase 3): 4 µM
Activity (Rattus norvegicus [21]): 60%
Activity (Rattus norvegicus [22]): 22%
IC50 [8]: 25 µM
IC50 (Neutrophil collagenase [9]): 0.018 µM

Cc1c(O)c(=S)ccn1Cc1ccc(-c2ccccc2)cc1
IC50 (Stromelysin-1 [23]): 4 µM
IC50 [24]: 1 µM
IC50 [25]: 2 µM
IC50 (Lethal factor): 3 µM

O=C(NCc1ccc(-c2ccccc2)cc1)c1occc(=O)c1O
IC50 (Matrilysin): 25 µM
IC50 [12]: 0.018 µM
IC50 (Stromelysin-1 [26]): 0.077 µM
IC50 (Interstitial collagenase): 25 µM
IC50 (Collagenase 3): 4 µM
IC50 [8]: 25 µM
IC50 (Neutrophil collagenase [9]): 0.018 µM

O=C(O)c1cccc(=S)n1O
inhibition (Pseudomonas aeruginosa): 98%
selectivity ratio [27]: 8800
Ki [28]: 0.013 µM

Cn1cc(O)c(=O)cc1/C=C/C(=O)c1ccc(F)cc1
IC50 (Mushroom tyrosinase [2]): 3.07 µM
IC50 (Mushroom tyrosinase [3]): 17.05 µM

[O-][n+]1ccccc1S
IC50 [28]: 0.908 µM
Ki [28]: 0.217 µM

CS(=O)(=O)Cc1cccc(=S)n1O
inhibition [1]: 90%
inhibition [14]: 93%
inhibition [29]: > 90%

Cc1occ(O)c(=S)c1C(=O)NCc1ccc(-c2ccccc2)cc1
inhibition [30]: 54%

CCCCCCCCn1ccc(=O)c(O)c1C
inhibition (Glycine max): 40%

Oc1coccc1=S
inhibition [1]: 90%
inhibition [14]: 93%
inhibition [29]: > 90%

Oc1coc2ccccc2c1=S
inhibition [14]: 93%
inhibition [29]: > 90%

Cc1c(OCc2ccccc2)c(=O)ccn1CCCC(=O)Nc1ccc(Cc2nc3ccccc3s2)cc1
IC50 (Acetylcholinesterase): 14.7 µM

Cc1c(OCc2ccccc2)c(=O)ccn1-c1ccc(CC(=O)Nc2ccc(-c3nc4ccccc4s3)cc2)cc1
IC50 (Acetylcholinesterase): 14.7 µM
Activity (SH-SY5Y): 100%
inhibition [31]: 68%

Cc1c(OCc2ccccc2)c(=O)ccn1-c1ccc(CC(=O)Nc2ccc(Cc3nc4ccccc4s3)cc2)cc1
IC50 (Acetylcholinesterase): 14.7 µM

Cc1occc(=O)c1O[C@@H]1O[C@H](CO)[C@@H](O)[C@H](O)[C@H]1O
inhibition (Neutrophil collagenase [32]): 33%
inhibition [33]: 73%

On1cc2ccccc2cc1=S
inhibition [29]: > 90%
